Results reported in PubChem BioAssay (NCI).
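These data come from cells grown in 96-well plates and exposed to compound for 48 hours at five concentrations. GI50 marks 50% less growth. At the TGI there is no net growth.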

Experiments:
Experiment in all cases: inhibition of tumour cell growth, NCI panel, 48 h
HCT-15 colon = system: HCT-15 colon
OVCAR-8 ovarian = system: OVCAR-8 ovarian
MALME-3M melanoma = system: MALME-3M melanoma
A549 NSCLC = system: A549 NSCLC
SK-MEL-5 melanoma = system: SK-MEL-5 melanoma
OVCAR-5 ovarian = system: OVCAR-5 ovarian
SR leukemia = system: SR leukemia
EKVX NSCLC = system: EKVX NSCLC
786-0 renal = system: 786-0 renal
CAKI-1 renal = system: CAKI-1 renal

Structure (SMILES) | TGI (HCT-15 colon) [µM] | TGI (OVCAR-8 ovarian) [µM] | TGI (MALME-3M melanoma) [µM] | TGI (A549 NSCLC) [µM] | TGI (SK-MEL-5 melanoma) [µM] | TGI (OVCAR-5 ovarian) [µM] | TGI (SR leukemia) [µM] | TGI (EKVX NSCLC) [µM] | TGI (786-0 renal) [µM] | TGI (CAKI-1 renal) [µM] | GI50 (HCT-15 colon) [µM] | GI50 (OVCAR-8 ovarian) [µM] | GI50 (MALME-3M melanoma) [µM] | GI50 (A549 NSCLC) [µM] | GI50 (CAKI-1 renal) [µM] | GI50 (SK-MEL-5 melanoma) [µM] | GI50 (OVCAR-5 ovarian) [µM] | GI50 (SR leukemia) [µM] | GI50 (EKVX NSCLC) [µM] | GI50 (786-0 renal) [µM]
O=C1CCCCCCCCCCC1CN1CCCCC1 (stereo not drawn) | > 100 | > 100 | > 100 | > 100 | 28.3 | > 100 | > 100 | > 100 | > 100 | – | – | – | – | – | – | – | – | – | – | –
CN/N=C(\C)C(CN(C)C)C(c1ccccc1)c1c(O)c2ccccc2oc1=O (stereo not drawn) | > 100 | > 100 | > 100 | > 100 | > 100 | > 100 | > 100 | > 100 | > 100 | > 100 | – | – | – | – | – | – | – | – | – | –
CCCC(CCC)C(=O)OCC1(CO)C/C(=C\c2ccc(F)cc2)C(=O)O1 (stereo not drawn) | 26.2 | 37 | 27.2 | 21.5 | 17 | 31.4 | 25.4 | 34.3 | 23.8 | 27.4 | 12.5 | 17.9 | 12.1 | 3.66 | 7.28 | 0.829 | 16.6 | 6.55 | 7.67 | 10.5
CCOC(=N)CC(=O)c1ccccc1 | – | > 100 | > 100 | > 100 | > 100 | > 100 | > 100 | > 100 | > 100 | > 100 | – | – | – | – | – | – | – | – | – | –
CC/C(CC(=O)CCC(=O)Nc1ccccc1[N+](=O)[O-])=N/NC(=O)C[n+]1ccccc1 | > 100 | > 100 | > 100 | > 100 | > 100 | > 100 | > 100 | > 100 | > 100 | > 100 | – | – | – | – | – | – | – | – | – | –
O=C(O)C(Cl)(c1ccccc1)c1ccccc1 | > 100 | > 100 | > 100 | > 100 | > 100 | > 100 | > 100 | > 100 | > 100 | > 100 | – | – | – | – | – | – | – | – | – | –
O=[N+]([O-])CCc1cccc([N+](=O)[O-])c1 | > 100 | > 100 | > 100 | > 100 | > 100 | > 100 | > 100 | > 100 | > 100 | > 100 | – | – | – | – | – | – | – | – | – | –
CCn1c(-c2cc3ccccc3cc2O)nn(C(=O)c2c(Cl)cccc2Cl)c1=S | > 50 | > 50 | > 50 | > 50 | 19.7 | > 50 | > 50 | > 50 | 27.4 | > 50 | 16.3 | > 50 | 30.8 | > 50 | 21.4 | 10 | > 50 | 17.6 | > 50 | 10.8
Cc1cc(CC(C)CC(C)(C)C)n(O)c(=O)c1 (stereo not drawn) (tested in a mixture with another compound) | > 100 | > 100 | 13 | > 49.7 | 1.01 | > 58 | 2.97 | 25.4 | 5.7 | 9.82 | 0.459 | 0.41 | 0.482 | 0.5 | 1.76 | 0.292 | 0.689 | 0.286 | 0.889 | 1.8
COc1cccc(C2c3cc4c(cc3OC(N3CCCC3)C2C)OCO4)c1O (stereo not drawn) | 38.4 | 42 | 58.2 | > 67.1 | 16.3 | > 100 | 25 | > 84.9 | > 100 | 68.3 | – | – | – | – | – | – | – | – | – | –
CN(C)c1nc(=Nc2cccc(Cl)c2)ss1 | 27.9 | 25.6 | 27.1 | 76.4 | > 100 | 74.6 | 34 | 56.5 | 25.6 | 33.4 | – | – | – | – | – | – | – | – | – | –
CCCCCCCCCCCCCCCCCC(=O)OCC(COC(=O)CCCN)OC(=O)CCCN (stereo not drawn) | 52.3 | 37.1 | 38.2 | 16.4 | – | 29.4 | > 100 | 53.9 | 34.3 | 35.5 | – | – | – | – | – | – | – | – | – | –
FC(F)(F)C1(Br)C(c2ccccc2)=C1c1ccccc1 | 28 | 30.5 | 30.5 | 85.7 | 28.8 | 52 | 78.5 | > 100 | 31 | 54.7 | – | – | – | – | – | – | – | – | – | –
CC(C)(C)[Si](C)(C)OC1[C@@H](O[Si](C)(C)C(C)(C)C)[C@@H](CNC(=O)NC(=O)CCl)O[C@H]1n1cnc2c(NC(=O)Nc3ccccc3)ncnc21 (stereo partly drawn) | 6.56 | 1.42 | 1.62 | 3.51 | 1.55 | 2.08 | 0.446 | 2.98 | 0.633 | 2.82 | 1.77 | 0.307 | 0.796 | 1.19 | 0.989 | 0.833 | 0.911 | 0.117 | 1.01 | 0.31
Cn1c2ccc(Br)cc2c2c3c(c4c5ccccc5[nH]c4c21)C(=O)N(O)C3=O | – | 0.683 | 0.386 | 2.49 | 0.266 | 3.73 | 2.64 | 0.896 | 0.421 | 0.885 | – | 0.149 | 0.186 | 0.63 | 0.22 | 0.128 | 1.33 | 0.0228 | 0.232 | 0.174
C=C[C@@]1(O)CCCC2=C(C(=O)OCC)CC[C@]21C | > 100 | > 100 | > 100 | > 100 | > 100 | > 100 | > 100 | > 100 | > 100 | – | – | – | – | – | – | – | – | – | – | –
Cc1nc(N2CCC3(CC2)CO[C@@H](C)[C@H]3N)c(CO)nc1Sc1ccnc(N)c1Cl | > 100 | > 100 | > 100 | > 100 | 35 | > 100 | > 100 | > 100 | > 100 | > 100 | > 100 | 75.6 | > 100 | > 100 | 0.194 | 14.1 | > 100 | 11.9 | 0.449 | 12.8
O=C(CNc1ccccc1[N+](=O)[O-])Nn1c(-c2ccccc2)nc2ccccc2c1=O | 44.3 | > 100 | 40.6 | > 100 | 22.1 | 41.3 | 71.7 | 36.2 | 34.5 | – | – | – | – | – | – | – | – | – | – | –
